# Data reported in ChEMBL document CHEMBL5252531, “2015 Philip S. Portoghese Medicinal Chemistry Lectureship. Curing Hepatitis C Virus Infection with Direct-Acting Antiviral Agents: The Arc of a Medicinal Chemistry Triumph” (J Med Chem, 2016).
# How the values were obtained:
# [1] = system: Hepatitis C virus; assay: Antiviral activity against HCV GT1b-genotype assessed as viral growth inhibition measured after 24 hrs; type: functional, organism-based, Hepacivirus hominis; conditions: for EC50: Hepatitis C virus, GT1b-genotype, 24 h
# [2] = system: Hepatitis C virus; assay: Antiviral activity against HCV GT1a-genotype assessed as inhibition of viral replication; type: functional, organism-based, Hepacivirus hominis
# [3] = Clearance in Wistar rat at 10 mg/kg, iv measured after 4 hrs; type: ADME, organism-based; conditions: in vivo
# [4] = Clearance in Wistar rat at 10 mg/kg, po measured after 4 hrs; type: ADME, organism-based; conditions: in vivo
# [5] = Aqueous solubility of the compound at pH 2.2 measured after 24 hrs; type: physicochemical
# [6] = system: Hepatitis C virus; assay: Antiviral activity against HCV genotype 1a; type: functional, organism-based, Hepacivirus hominis
# [7] = system: Hepatitis C virus; assay: Antiviral activity against HCV GT1b-genotype assessed as inhibition of viral replication measured after 24 hrs; type: functional, organism-based, Hepacivirus hominis
# [8] = system: Pregnane X receptor (Homo sapiens); assay: PXR activation
# [9] = Solubility of the compound; type: physicochemical
# [10] = Oral bioavailability in Sprague-Dawley rat at 10 mg/kg measured after 4 hrs; type: ADME, organism-based; conditions: in vivo
structure (smiles),measurement,setting,value
COc1ccc2c(c1)C1CC1(C(=O)N1CC3CCC(C1)N3C)Cn1c-2c(C2CCCCC2)c2ccc(C(=O)NS(=O)(=O)N(C)C)cc21 (racemic),EC50,[1],39 nM
same,EC50,[2],16 nM
same,CL,[3],20.6 mg/mL/kg
same,CL,[4],55.4 mg/mL/kg
COc1ccc2c(c1)[C@@H]1C[C@]1(C(=O)N1[C@@H]3CC[C@H]1CN(C)C3)Cn1c-2c(C2CCCCC2)c2ccc(C(=O)NS(=O)(=O)N(C)C)cc21 [BECLABUVIR],Activity,[1]; time 24 hrs,1.3 log10 IU/mL
same,solubility at 24 h,[5],> 1600 µg/mL
same,EC50,[6],200 nM
O=C(O)c1ccc2c(C3CCCCC3)c3n(c2c1)CC(C(=O)N1CCOCC1)Cc1ccccc1-3 (racemic),EC50,[2],2 nM
same,EC50,[7],200 nM
COc1ccc2c(c1)[C@@H]1C[C@]1(C(=O)N1CC(C)N(C)C(C)C1)Cn1c-2c(C2CCCCC2)c2ccc(C(=O)NS(=O)(=O)N(C)C)cc21 (some centres undefined),EC50,[1],3 nM
same,EC50,[2],1 nM
same,EC50,[8],> 50000 nM
same,solubility,[9],34 µg/mL
same,bioavailability,[10],17%
